{"source": "patent US6620446B2", "about": "“Antibacterial composition for control of gram positive bacteria in food applications” (Rhodia, Inc., priority 2000, dated 2003)", "origin": "cited, not measured here", "test_system": "L. monocytogenes", "conditions": "reported by M. Doyle, Food Technology 1988", "data": [{"substance": "nisin", "values": [{"measurement": "initial inhibition of the organism's growth, duration", "value": "about 12 hours"}]}]}
